According to US7132418B2, “Peptidyl heterocyclic ketones useful as tryptase inhibitors” (Ortho-McNeil Pharmaceutical, Inc., priority 1999, dated 2006):

Key:
[1] = target: T1, human Lung Tryptase; experiment: Tryptase IC50 method, chromogenic substrate hydrolysis; type: biochemical; conditions: 1.0 nM human lung tryptase, 500 μM N-p-Tosyl-GLY-PRO-LYS-pNA, 37° C.
T1 construct: 1.0 nM human Lung Tryptase
Method: (§1) The enzyme reaction is started by the addition of enzyme ([E]: 1.0 nM human Lung Tryptase; Cortex Biochem CP3033). Data is collected over a period of 30 min. and the initial rate of substrate hydrolysis (Vo (mOD/min)) is calculated. Inhibition is calculated by comparing to wells containing no inhibitor (vehicle) and IC50s are determined using a four parameter fit logistics model. • Trypsin IC50 Method: Inhibition of trypsin-catalyzed hydrolysis rates were measured using the same method as the tryptase procedure. Bovine type 1 trypsin (Sigma) and Spectrozyme® TRY (Cbo-Gly-D-Ala-Arg-pNA.AcOH, American Diagnostics) replaced their tryptase equivalents at concentrations of 3.2 U/ml trypsin and 1.0 mM Spectrozyme® TRY.

[2] = target: T2, Bovine type 1 trypsin (Bos taurus, UniProt P00760); experiment: Trypsin IC50 method, chromogenic substrate hydrolysis; type: biochemical; conditions: 3.2 U/ml bovine type 1 trypsin, 1.0 mM Spectrozyme TRY
T2 construct: purchased Sigma
T2 sequence (P00760 24-246): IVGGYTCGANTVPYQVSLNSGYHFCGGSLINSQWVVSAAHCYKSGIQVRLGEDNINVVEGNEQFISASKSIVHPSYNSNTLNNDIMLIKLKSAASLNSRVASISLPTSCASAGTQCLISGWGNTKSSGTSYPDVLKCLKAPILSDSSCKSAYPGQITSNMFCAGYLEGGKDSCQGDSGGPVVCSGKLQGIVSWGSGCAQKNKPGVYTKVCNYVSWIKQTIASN
Method: as §1

[3] = tested on: trypsin; conditions: pancreatic agents, comparison values; cited from earlier work
[4] = compared with placebo, 16 mild asthmatics, nebulized dry powder formulation; cited from earlier work

## CC(=O)N[C@H]1CCC[C@H]1C(=O)NC(CCCNC(=N)N)C(=O)c1nc2ccccc2s1 (stereo partly drawn) [Compound 3, cis-2-Acetylamino-N-[(1S)-4-[(aminoiminomethyl)amino]-1-(2-benzothiazolylcarbonyl)butyl]-1-cyclopentanecarboxamide]
[1]
  IC50: 1700 ± 700 nM
[2]
  IC50: 360 ± 30 nM

## N=C(N)NCCC[C@H](NC(=O)[C@@H]1CCCN1C(=O)[C@H](CO)NS(=O)(=O)c1cccc2ccccc12)C(=O)c1nc2ccccc2s1 [Compound 29]
[1]
  IC50: 14 ± 5 nM
[2]
  IC50: 58 ± 12 nM

## N=C(N)NCCCC(NC(=O)CCC(N)=O)C(=O)c1nc2ccccc2s1 (stereo not drawn) [Compound 23, N-[4-[(Aminoiminomethyl)amino]-1-(2-benzothiazolylcarbonyl)butyl]butanediamide]
[1]
  IC50: 260 ± 10 nM
[2]
  IC50: 93 ± 68 nM

## CC(=O)N[C@H]1CCCN(CC(=O)NC(CCCNC(=N)N)C(=O)c2nc3ccccc3s2)C1=O (stereo partly drawn) [Compound 19, (S)-3-Acetamido-N-[4-[(aminoiminomethyl)amino]-1-(2-benzothiazolylcarbonyl)butyl]-2oxo-1-piperidineacetamide]
[1]
  IC50: 12000 ± 5000 nM
[2]
  IC50: 320 nM

## CC(=O)N[C@H](C(=O)NC(CCCNC(=N)N)C(=O)c1nc2ccccc2s1)C(C)C (stereo partly drawn) [Compound 33]
[1]
  IC50: 180 ± 10 nM
[2]
  IC50: 19 nM

## CN[C@H](Cc1ccccc1)C(=O)N1CCC[C@H]1C(=O)N[C@@H](CC1CCCN(C(=N)N)C1)C(=O)c1nc2ccccc2s1 (stereo partly drawn) [Compound 30, N-Methyl-D-phenylalanyl-N-[(2S)-[1-(aminoiminomethyl)-3-piperidinyl]-1-(2-benzothiazolylcarbonyl)ethyl]-L-prolinamide]
[1]
  IC50: 36 ± 4 nM
[2]
  IC50: 110 ± 70 nM

## N=C(N)c1ccc2cc(OC(=O)c3ccc(N=C(N)N)cc3)ccc2c1 [nafamostat]
[3]
  IC50: 13 nM

## CN(C)C(=O)COC(=O)Cc1ccc(OC(=O)c2ccc(NC(=N)N)cc2)cc1 [camostat mesilate]
[3]
  IC50: 10 nM

## CC(=O)NC1CCC(C(=O)NC(CCCNC(=N)N)C(=O)c2nc3ccccc3s2)CC1 (stereo not drawn) [Compound 17, 4-Acetamido-N-[4-[(aminoiminomethyl)amino]-1-(2-benzothiazolylcarbonyl)butyl]-cyclohexanecarboxamide]
[1]
  IC50: 9400 ± 5700 nM
[2]
  IC50: 2400 nM

## N=C(N)NCCC[C@H](NC(=O)CN1CCCC[C@H](NS(=O)(=O)Cc2ccccc2)C1=O)C(=O)c1nc2ccccc2s1 [Compound 28, (3S)N-[(1S)-4-[(Aminoiminomethyl)amino]-1-(2-benzothiazolylcarbonyl)butyl]hexahydro-2-oxo-3-[[(phenylmethyl)sulfonyl]amino]-1H-azepine-1-acetamide]
[1]
  IC50: 100 ± 40 nM
[2]
  IC50: 42 ± 1 nM

## CC(=O)N1C[C@H]2C[C@H]2C1C(=O)NC(CCCNC(=N)N)C(=O)c1nc2ccccc2s1 (stereo partly drawn) [Compound 8, (2S)-trans-3-Acetyl-N-[4-[(aminoiminomethyl)amino]-1-(2-benzothiazolylcarbonyl)butyl]-3-azabicyclo(3.1.0)hexane-2-carboxamide]
[1]
  IC50: 110 ± 40 nM
[2]
  IC50: 190 nM

## CS(=O)(=O)N1CCC[C@H]1C(=O)NC(CCCNC(=N)N)C(=O)c1nc2ccccc2s1 (stereo partly drawn) [Compound 6, (2S)-N-[4-[(aminoiminomethyl)amino]-1-(2-benzothiazolylcarbonyl)butyl]-1-methanesulfonyl-2-pyrrolidinecarboxamide]
[1]
  IC50: 140 ± 80 nM
[2]
  IC50: 110 nM

## Cc1ccc(S(=O)(=O)N2CCC[C@H]2C(=O)NC(CCCNC(=N)N)C(=O)c2nc3ccccc3s2)cc1 (stereo partly drawn) [Compound 7, (2S)-N-[4-[(Aminoiminomethyl)amino]-1-(2-benzothiazolylcarbonyl)butyl]-1-[(4-methylphenyl)sulfonyl]-2-pyrrolidinecarboxamide]
[1]
  IC50: 1400 ± 800 nM
[2]
  IC50: 230 ± 110 nM

## CC(=O)N[C@@H](CC1CCCCC1)C(=O)NC(CCCNC(=N)N)C(=O)c1nc2ccccc2s1 (stereo partly drawn) [Compound 32]
[1]
  IC50: 440 nM
[2]
  IC50: 17 nM

## N=C(N)NCCC[C@H](NC(=O)[C@@H]1CCCN1C(=O)[C@@H](CC1CCCCC1)NCC(=O)O)C(=O)c1nc2ccccc2s1 [Compound 27, N-(Carboxymethyl)-3-cyclohexyl-D-alanyl-N-[(1S)-4-[(aminoiminomethyl)amino]-1-(2-benzothiazolylcarbonyl)butyl]-L-prolinamide]
[1]
  IC50: 34 ± 3 nM
[2]
  IC50: 36 ± 1 nM

## COC(=O)N1CCC[C@H]1C(=O)NC(CCCNC(=N)N)C(=O)c1nc2ccccc2s1 (stereo partly drawn) [Compound 11, (2S)-N-[4-[(Aminoiminomethyl)amino]-1-(2-benzothiazolylcarbonyl)butyl]-1,2-pyrrolidinedicarboxamide, 1-methyl ester]
[1]
  IC50: 2400 ± 900 nM
[2]
  IC50: 39 nM

## CCCC(CCC)C(=O)N[C@@H](CC(=O)OC)C(=O)N1CCC[C@H]1C(=O)N[C@@H](CCCNC(=N)N)C(=O)c1nc2ccccc2s1 [Compound 26, N-(1-Oxo-2-propylpentyl)-L-α-aspartyl-N-[4-[(aminoiminomethyl)amino]-1-(2-benzothiazolylcarbonyl)butyl]-L-prolinamide, methyl ester]
[1]
  IC50: 110 ± 10 nM
[2]
  IC50: 48 ± 1 nM

## CS(=O)(=O)N1C[C@H](O)C[C@H]1C(=O)NC(CCCNC(=N)N)C(=O)c1nc2ccccc2s1 (stereo partly drawn) [Compound 5, (2S,4R)-N-[4-[(aminoiminomethyl)amino]-1-(2-benzothiazolylcarbonyl)butyl]-4-hydroxy-1-methanesulfonyl-2-pyrrolidinecarboxamide]
[1]
  IC50: 100 ± 10 nM
[2]
  IC50: 210 nM

## N=C(N)NCCCC(NC(=O)[C@@H]1CCCN1C(=O)c1ccccc1)C(=O)c1nc2ccccc2s1 (stereo partly drawn) [Compound 34]
[1]
  IC50: 340 nM
[2]
  IC50: 46 nM

## NC(=O)[C@@H]1CCCN1C(=O)[C@H](CCCN=C(N)N)NC(=O)c1ccc2ccccc2c1O [APC-366]
[4]
  improvement for the late airway response: 33%
  mean maximum decrease of forced expiratory volume in one second for late airway hyperresponsiveness: 21%

## N=C(N)NCCCC(NC(=O)C1CCCCC1C(N)=O)C(=O)c1nc2ccccc2s1 (stereo not drawn) [Compound 16, N-[4-[(Aminoiminomethyl)amino]-1-(2-benzothiazolylcarbonyl)butyl]-1,2-cyclohexanedicarboxamide]
[1]
  IC50: 180 ± 70 nM
[2]
  IC50: 160 nM

## CN[C@H](Cc1ccccc1)C(=O)N1CCC[C@H]1C(=O)N[C@@H](Cc1cccc(C(=N)N)c1)C(=O)c1nc2ccccc2s1 [Compound 31, (S)—N-methyl-D-phenylalanyl-N-[1-[[3-(aminoiminomethyl)phenyl]methyl]-2-(2-benzothiazolyl)-2-oxoethyl]-L-prolinamide]
[1]
  IC50: 290 ± 30 nM
[2]
  IC50: 240 nM
